pKd: −log10 of the molar value. Values after ≈ are worked out from the molar mass of the structure shown.
Columns and labels:
[1] = Binding affinity to HPPK (unknown origin) assessed as dissociation constant by MST analysis; parameters: species or system Bacteria
[2] = tested on: Staphylococcus epidermidis; test: Antibacterial activity against Staphylococcus epidermidis assessed as inhibition of bacterial growth in LB media; format: functional
Escherichia coli = test: Antibacterial activity against Escherichia coli MG1655 assessed as inhibition of bacterial growth in LB media; format: functional

Nc1nc2[nH]cc(CCCN3CCC(SC[C@H]4O[C@@H](n5cnc6c(N)ncnc65)[C@H](O)[C@@H]4O)CC3C(=O)O)c2c(=O)[nH]1 (stereo partly specified)
pKd [1]: 4.89 | MIC50 [2]: 120 µM (≈ 72.1 µg/mL) | MIC90 [2]: 240 µM (≈ 144 µg/mL) | MIC ([2]; read-out: MIC100): 400 µM (≈ 240 µg/mL) | MIC10 (Escherichia coli): 400 µM (≈ 240 µg/mL) | MIC30 (Escherichia coli): 2000 µM (≈ 1200 µg/mL)

— ChEMBL document CHEMBL6083229, “Bisubstrate inhibitors of 6-hydroxymethyl-7,8-dihydroptein pyrophosphokinase: Toward cell permeability” (Bioorg Med Chem Lett, 2024)
